Here are results for five compounds from paper PMC9554508, “ARumenamides: A novel class of potential antiarrhythmic compounds” (Frontiers in Pharmacology, 2022).

One may read the IC50 as the concentration that inhibits the measured activity by half.

T1 sequence (Q14524 whole entry): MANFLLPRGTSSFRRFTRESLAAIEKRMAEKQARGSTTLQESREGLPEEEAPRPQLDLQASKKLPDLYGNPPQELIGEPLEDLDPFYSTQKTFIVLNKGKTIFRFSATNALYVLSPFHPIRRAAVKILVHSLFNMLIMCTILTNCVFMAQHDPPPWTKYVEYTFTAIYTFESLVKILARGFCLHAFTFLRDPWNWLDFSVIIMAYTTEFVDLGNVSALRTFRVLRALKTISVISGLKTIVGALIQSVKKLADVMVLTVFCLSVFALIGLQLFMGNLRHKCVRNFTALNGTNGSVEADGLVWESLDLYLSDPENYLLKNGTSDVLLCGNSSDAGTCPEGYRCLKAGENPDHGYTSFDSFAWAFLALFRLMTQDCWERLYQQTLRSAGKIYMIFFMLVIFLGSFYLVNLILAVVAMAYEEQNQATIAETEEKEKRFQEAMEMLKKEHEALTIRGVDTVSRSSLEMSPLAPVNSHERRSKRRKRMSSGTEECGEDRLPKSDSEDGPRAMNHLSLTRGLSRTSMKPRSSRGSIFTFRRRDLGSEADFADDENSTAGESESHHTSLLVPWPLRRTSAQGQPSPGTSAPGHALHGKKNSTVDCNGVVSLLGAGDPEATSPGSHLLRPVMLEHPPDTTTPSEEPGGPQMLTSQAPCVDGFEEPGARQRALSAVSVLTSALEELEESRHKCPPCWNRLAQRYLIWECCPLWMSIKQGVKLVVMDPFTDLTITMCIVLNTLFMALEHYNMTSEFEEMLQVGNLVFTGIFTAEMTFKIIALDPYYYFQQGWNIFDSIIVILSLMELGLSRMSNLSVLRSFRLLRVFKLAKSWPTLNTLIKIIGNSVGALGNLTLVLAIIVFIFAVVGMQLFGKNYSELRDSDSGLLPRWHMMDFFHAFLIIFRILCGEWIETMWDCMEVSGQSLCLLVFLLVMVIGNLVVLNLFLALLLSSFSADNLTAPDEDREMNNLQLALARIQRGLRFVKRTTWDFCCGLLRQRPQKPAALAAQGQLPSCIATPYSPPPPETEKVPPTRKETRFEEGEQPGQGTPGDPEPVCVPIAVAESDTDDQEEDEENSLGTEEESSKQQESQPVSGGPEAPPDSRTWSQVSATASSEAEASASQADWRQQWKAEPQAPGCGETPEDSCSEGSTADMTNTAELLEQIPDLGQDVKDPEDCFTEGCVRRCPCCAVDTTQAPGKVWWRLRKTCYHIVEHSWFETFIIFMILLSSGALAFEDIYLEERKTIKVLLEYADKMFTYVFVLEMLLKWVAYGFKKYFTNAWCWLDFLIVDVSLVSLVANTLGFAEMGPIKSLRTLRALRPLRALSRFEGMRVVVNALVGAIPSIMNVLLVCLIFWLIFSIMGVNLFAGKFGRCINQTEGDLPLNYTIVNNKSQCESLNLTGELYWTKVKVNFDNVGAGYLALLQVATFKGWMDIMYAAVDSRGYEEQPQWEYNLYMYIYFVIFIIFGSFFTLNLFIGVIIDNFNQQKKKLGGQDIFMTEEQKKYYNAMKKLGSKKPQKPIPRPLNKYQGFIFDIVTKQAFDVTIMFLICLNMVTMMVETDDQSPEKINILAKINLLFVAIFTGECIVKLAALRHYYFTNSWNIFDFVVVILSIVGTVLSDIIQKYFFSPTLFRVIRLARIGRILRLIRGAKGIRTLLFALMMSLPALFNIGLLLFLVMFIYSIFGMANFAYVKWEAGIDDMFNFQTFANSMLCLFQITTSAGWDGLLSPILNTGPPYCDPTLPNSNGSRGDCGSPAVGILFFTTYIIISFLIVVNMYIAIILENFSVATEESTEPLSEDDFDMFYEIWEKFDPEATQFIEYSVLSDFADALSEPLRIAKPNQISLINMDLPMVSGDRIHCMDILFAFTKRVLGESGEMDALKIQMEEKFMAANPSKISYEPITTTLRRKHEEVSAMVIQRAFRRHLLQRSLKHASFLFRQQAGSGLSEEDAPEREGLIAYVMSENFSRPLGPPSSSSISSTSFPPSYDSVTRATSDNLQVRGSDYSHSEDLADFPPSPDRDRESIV
T1 sequence (Q07699 19-218 partner): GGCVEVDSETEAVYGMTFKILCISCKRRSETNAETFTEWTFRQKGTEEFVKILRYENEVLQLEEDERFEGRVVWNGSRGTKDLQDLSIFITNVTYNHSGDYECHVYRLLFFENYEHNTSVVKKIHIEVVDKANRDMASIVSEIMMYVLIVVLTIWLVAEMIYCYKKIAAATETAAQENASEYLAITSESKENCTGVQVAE

This assay addresses T1, Nav1.5 (wild type; α-subunit co-transfected with the β1 subunit) (Homo sapiens, UniProt Q14524).
T1 construct: gene SCN5A; full-length alpha subunit transiently co-transfected with beta1 subunit and eGFP (separate cDNAs) in HEK293; with Sodium channel regulatory subunit beta-1
Nature of the assay: whole-cell patch clamp, peak INa block at -20 mV, Hill fit. Type of assay: cell-based. From the text:
whole-cell patch clamp, peak INa block at -20 mV, Hill fit on Nav1.5 (wild type; α-subunit co-transfected with the β1 subunit)
On the technique in general: In patch-clamp work, channel activity is measured electrically.
In turn, `CCc1ccccc1NS(=O)(=O)c1ccc2[nH]c(=O)[nH]c2c1` [AR-807, N-(2-ethylphenyl)-2-oxo-benzimidazole-5-sulfonamide] gave an IC50 of 9.86 µM. `COc1cccc(NS(=O)(=O)c2ccc3[nH]c(=O)[nH]c3c2)c1` [AR-802, N-(3-methoxyphenyl)-2-oxo-benzimidazole-5-sulfonamide] displayed a 50% inhibitory concentration (IC50) of 34.6 µM. Regarding `CN(C)[C@@H](CNC(=O)c1ccc2[nH]c(=O)c(=O)[nH]c2c1)c1ccco1` [AR-189, N-[(2S)-2-(dimethylamino)-2-(2-furyl)ethyl]-2,3-dioxo-quinoxaline-6-carboxamide], it took 12.6 µM to reach half-maximal inhibition (IC50).

In turn, `O=C(NCc1ccco1)c1ccc2[nH]c(=O)c(=O)[nH]c2c1` [AR-051, N-(2-furylmethyl)-2,3-dioxo-quinoxaline-6-carboxamide] showed an IC50 of 7.61 µM. Under `C=CCNS(=O)(=O)c1ccc2[nH]c(=O)[nH]c2c1` [AR-674, N-allyl-2-oxo-benzimidazole-5-sulfonamide] stands 6.45 µM.
